This note sets out measurements from patent US20110054014A1, “PRENYLFLAVANONE COMPOUNDS AND USES THEREOF” (NatureWise Biotech & Medicals Corporation, priority 2008, published 2011).

In this series the test system is Human breast cancer MCF-7 and MDA-MB-231 cells. The series can be described thus: Cytotoxicity assay (trypan blue exclusion). Conditions: for IC50: read-out: IC50 values.

Where two headings read alike, the source gives them in different places.

Method: Human breast cancer MCF-7 and MDA-MB-231 cells were purchased from the Food Industry Research and Development Institute (Hsinchu, Taiwan). The cells were cultured in Dulbecco's modified Eagle's medium (Gibco) containing 10% fetal bovine serum (FBS), a 1% dilution of penicillin-streptomycin, and 2 mM glutamine. Cells were maintained at 37° C. in a humidified atmosphere of 95% air and 5% CO2. However, MDA-MB-231 cells were cultured in L-15 medium (Gibco) containing 10% fetal bovine serum (FBS), a 1% dilution of penicillin-streptomycin, and 2 mM glutamine. Cells were maintained at 37° C. in a humidified atmosphere of 100% air and 0% CO2.
The cells (1.5×10^6 per dish) were cultured in a 100-mm dish and incubated for 14 h prior to treatment with DMSO or with different concentrations of propolins (2.5, 5.0, 10, and 20.0 μg/mL) for 48 h. The propolins were small compounds with their MWs ranging from 408-492 Da. These values were converted to their respective molarities.
The cells were counted and their viability was determined by trypan blue exclusion assay. The activity was shown as IC50 value (the concentration required to induce 50% cytotoxicity), and the average value was obtained from triplicate data points.

Regarding `CC(C)=CCC/C(C)=C/Cc1c(O)cc2c(c1O)C(=O)C[C@@H](c1ccc(O)cc1)O2` [Propolin J, 5,7,4′-trihydroxy-6-geranylflavanone], the IC50 (usually the midpoint of a concentration-inhibition curve) (Homo sapiens, 48 h) turned out to be 36.8 µM. Take `CC(C)=CCC/C(C)=C/Cc1cc([C@@H]2CC(=O)c3c(O)cc(O)cc3O2)cc(O)c1O` [Propolin F, reference compound]: the IC50 (concentration required to induce 50% cytotoxicity, 48 h treatment, human breast cancer cells, cell line not given, one representative of three independent experiments) was found to be 47.2 µM. For `CC(C)=CCC/C(C)=C/CC/C(C)=C/Cc1c(O)cc2c(c1O)C(=O)C[C@@H](c1ccc(O)c(O)c1)O2` [Propolin I, 5,7,3′,4′-tetrahydroxy-6-farnesylflavanone], under “Homo sapiens, 48 h”, the IC50 was found to be 10.2 µM. The “cytotoxic activity against human breast cancer cells” value (conclusion in words from Table 2) is given as “cytotoxic activity”.
